Test results as given in patent US20050142626A1, “Diagnostic methods for asthma” (priority 1999, published 2005).

Assays:
[1] = system: eosinophil peroxidase-H2O2—Br− system; experiment: 3-Bromotyrosine formation in BSA incubated with activated phagocytes (eosinophils); assay type: cell-based; conditions: BSA with phorbol ester activated cells, plasma levels of bromide
Procedure: Reactions were initiated by addition of oxidant (H2O2, HOBr, N-bromo or N,N-dibromo amine) and performed in sodium phosphate buffer (pH 7.0) at 37° C. for 60 min. Proteins oxidized in vitro were prepared for analysis by first precipitating and desalting them in a single-phase extraction mixture comprised of H2O:methanol:H2O-saturated diethyl ether (1:3:7, v:v:v) as described in Hazen, S. L., Hsu, F. F., Gaut, J. P., Crowler, J. R. and Heinecke, J. W. “Modification of Proteins and Lipids by Myeloperoxidase-Derived Oxidants” In: Methods of Enzymology, Edited by Lester Packer, Vol. 300, pp. 88-106. Academic Press, Inc., San Diego. 1999, followed by acid hydrolysis in methane sulfonic acid. […]
L-Tyrosine, 3-bromotyrosine and 3,5-dibromotyrosine generated by phagocytes and human tissues were quantified by stable isotope dilution GC/MS in the negative-ion chemical ionization mode. n-Propyl, per heptafluorobutyryl (HFB) derivatives of amino acids were prepared by standard methods and analyzed on a Perkin Elmer TurboMass mass spectrometer equipped with chemical ionization probe. […] 3-Bromotyrosine was monitored as its n-propyl per HFB derivative using two structurally informative fragment ions, m/z 573 (M-HF)^− and m/z 445 (M-CF3CF2CHO)^− and their corresponding isotopically labeled [^13C6] internal standard ions at m/z 579 and 451, respectively. […]

[2] = Chemical stability of L-tyrosine oxidation products (Peaks I and II) of the EPO-H2O2-Br- system; conditions: to acid, peroxide, reductants and nucleophilic compounds; prolonged incubation at 37° C. with H2O2
[3] = system: eosinophil peroxidase; experiment: Ring-bromination of L-tyrosine by isolated EPO at physiological levels of halides; assay type: biochemical; conditions: molar excess in reaction mixtures
Procedure: Reactions were initiated by addition of oxidant (H2O2, HOBr, N-bromo or N,N-dibromo amine) and performed in sodium phosphate buffer (pH 7.0) at 37° C. for 60 min. Proteins oxidized in vitro were prepared for analysis by first precipitating and desalting them in a single-phase extraction mixture comprised of H2O:methanol:H2O-saturated diethyl ether (1:3:7, v:v:v) as described in Hazen, S. L., Hsu, F. F., Gaut, J. P., Crowler, J. R. and Heinecke, J. W. “Modification of Proteins and Lipids by Myeloperoxidase-Derived Oxidants” In: Methods of Enzymology, Edited by Lester Packer, Vol. 300, pp. 88-106. Academic Press, Inc., San Diego. 1999, followed by acid hydrolysis in methane sulfonic acid.
Quantitative determination of 3-bromotyrosine and 3,5-dibromotyrosine production from free L-tyrosine was performed utilizing reverse-phase HPLC with a C18 column (Beckman Ultrasphere, 5 μm resin, 4.6×250 mm) equilibrated with solvent A (0.1% trifluoroacetic acid, pH 2.5). […] 3-Bromotyrosine and 3,5-dibromotyrosine were monitored on a diode array detector and quantified at 280 nm employing a standard curve constructed with authentic synthetic standards.
The ability of isolated EPO and MPO to form 3-bromotyrosine and 3,5-dibromotyrosine in the presence of physiological levels of halides was evaluated. […]

Molecule | effect on 3-bromotyrosine production [1] | other results
[N-]=[N+]=[N-].[Na+] [NaN3] | inhibited | 
catalase | inhibited | 
N[C@@H](Cc1cc(Br)c(O)c(Br)c1)C(=O)O (single isomer, unassigned) [3,5-dibromotyrosine] |  | chemical stability of the product [2]: stable
NCCS(=O)(=O)O [taurine] |  | effect on ring-bromination by EPO [3]: augmented
